Test [1] has as its system MIA PaCa-2. In words: Induction of apoptosis in human MIAPaCa2 cells at 10 uM after 72 hrs by Histone DNA ELISA. It counts as functional, cell-based. (ELISA stands for enzyme-linked immunosorbent assay.)
Test [2] relates to BXPC-3. In words: Cytotoxicity against human BxPC3 cells at 10 uM after 72 hrs by MTT assay. It counts as functional, cell-based. For orientation: Tetrazolium assays rely on reduction of a dye to a coloured formazan, in cell work by metabolically active cells.
For test [3], the system named is MIA PaCa-2. In words: Chemo-sensitizing activity in human MIAPaCa2 cells assessed as potentiation of gemcitabine-induced cytotoxicity at 2.5 uM after 72 hrs by MTT assay. It counts as functional, cell-based.
Test [4] has as its system MIA PaCa-2. In words: Cytotoxicity against human MIAPaCa2 cells at 0.5 uM after 72 hrs by MTT assay. It counts as functional.
Test [5] concerns MIA PaCa-2. Kind of test: Cytotoxicity against human MIAPaCa2 cells at 5 to 25 uM after 72 hrs by MTT assay. It counts as functional, cell-based.

Structures are written as SMILES. The source made the active and inactive calls. The rule behind the calls is not given here.

Consider `CC1=C(/N=C/c2ccc(F)c(F)c2F)C(=O)C(C(C)C)=CC1=O`, for which the result in test [1] and in test [2] was Active. The outcome in test [3] was inactive.
Take `CC1=C(N)C(=O)C(C(C)C)=CC1=O`: in test [2], the result was Active.
The compound `Nc1ccn([C@@H]2O[C@H](CO)[C@@H](O)C2(F)F)c(=O)n1` [GEMCITABINE] returned an Activity in test [4] of more than 50%.
With `CC1=C(/N=C/c2ccc(O)c(O)c2O)C(=O)C(C(C)C)=CC1=O`, the outcome in test [1], in test [5], in test [2] and in test [3] was Active.
